# Measured values published in patent US6518243B1, “Desleucyl glycopeptide antibiotics and methods of making same” (Trustees of Princeton University, priority 1999, dated 2003).
# Test system: E. faecalis (CL 4877)
# Assay: Zone of inhibition screen, 96 well agar array format
# Assay type: cell-based
# Design: scale not given here
# Details: zone of inhibition relative to 1 mg/ml stock solution of p-chlorobiphenylvancomycin
# Description: The antibacterial activity of each of the compounds against the bacterial strains E. faceium (ATCC 49624), S. epidermidis (ATCC 12228), S. aureus (ATCC 29213), E. faecalis (CL 4877) and E. faecalis (ATCC 292121) was tested. Each of the compounds was screened in a 96 will agar array format.
row,SMILES,"zone score, E. faecalis CL 4877"
1,CC1OC(OC2C(Oc3c4cc5cc3Oc3ccc(cc3Cl)C(O)C3NC(=O)C(NC(=O)C5NC(=O)C(CC(N)=O)NC(=O)C(NC(=O)C(O)CN)C(O)c5ccc(c(Cl)c5)O4)c4ccc(O)c(c4)-c4c(O)cc(O)cc4C(C(=O)O)NC3=O)OC(CO)C(O)C2O)CC(C)(NCc2ccc(-c3ccc(Cl)cc3)cc2)C1O (mixture of isomers) [Compound 60],2
2,CC(=O)NCCCCC(NC(C)=O)C(=O)NC1C(=O)NC(CC(N)=O)C(=O)NC2C(=O)NC3C(=O)NC(C(=O)NC(C(=O)O)c4cc(O)cc(O)c4-c4cc3ccc4O)C(O)c3ccc(c(Cl)c3)Oc3cc2cc(c3OC2OC(CO)C(O)C(O)C2OC2CC(C)(NCc3ccc(-c4ccc(Cl)cc4)cc3)C(O)C(C)O2)Oc2ccc(cc2Cl)C1O (mixture of isomers) [Compound 114],2
3,CC1OC(OC2C(Oc3c4cc5cc3Oc3ccc(cc3Cl)C(O)C(NC(=O)C3OC(O)C(O)C(O)C3O)C(=O)NC(CC(N)=O)C(=O)NC5C(=O)NC3C(=O)NC(C(=O)NC(C(=O)O)c5cc(O)cc(O)c5-c5cc3ccc5O)C(O)c3ccc(c(Cl)c3)O4)OC(CO)C(O)C2O)CC(C)(NCc2ccc(-c3ccc(Cl)cc3)cc2)C1O (mixture of isomers) [Compound 147],2
4,CC1OC(OC2C(Oc3c4cc5cc3Oc3ccc(cc3Cl)C(O)C(NC(=O)C3OC(O)C(O)C(O)C3O)C(=O)NC(CC(N)=O)C(=O)NC5C(=O)NC3C(=O)NC(C(=O)NC(C(=O)O)c5cc(O)cc(O)c5-c5cc3ccc5O)C(O)c3ccc(c(Cl)c3)O4)OC(CO)C(O)C2O)CC(C)(NCc2ccc(-c3ccc(Cl)cc3)cc2)C1O (mixture of isomers) [Compound 148],2
5,CC1OC(OC2C(Oc3c4cc5cc3Oc3ccc(cc3Cl)C(O)C3NC(=O)C(NC(=O)C5NC(=O)C(CC(N)=O)NC(=O)C(NC(=O)C(O)CO)C(O)c5ccc(c(Cl)c5)O4)c4ccc(O)c(c4)-c4c(O)cc(O)cc4C(C(=O)O)NC3=O)OC(CO)C(O)C2O)CC(C)(NCc2ccc(-c3ccc(Cl)cc3)cc2)C1O (mixture of isomers) [Compound 152],2
6,CC(=O)NC(C)C(=O)NC1C(=O)NC(CC(N)=O)C(=O)NC2C(=O)NC3C(=O)NC(C(=O)NC(C(=O)O)c4cc(O)cc(O)c4-c4cc3ccc4O)C(O)c3ccc(c(Cl)c3)Oc3cc2cc(c3OC2OC(CO)C(O)C(O)C2OC2CC(C)(NCc3ccc(-c4ccc(Cl)cc4)cc3)C(O)C(C)O2)Oc2ccc(cc2Cl)C1O (mixture of isomers) [Compound 174],2
7,CC(=O)NC(CO)C(=O)NC1C(=O)NC(CC(N)=O)C(=O)NC2C(=O)NC3C(=O)NC(C(=O)NC(C(=O)O)c4cc(O)cc(O)c4-c4cc3ccc4O)C(O)c3ccc(c(Cl)c3)Oc3cc2cc(c3OC2OC(CO)C(O)C(O)C2OC2CC(C)(NCc3ccc(-c4ccc(Cl)cc4)cc3)C(O)C(C)O2)Oc2ccc(cc2Cl)C1O (mixture of isomers) [Compound 178],2
8,C[C@H]1O[C@H](O[C@H]2[C@H](Oc3c4cc5cc3Oc3ccc(cc3Cl)[C@@H](O)[C@@H](NC(=O)[C@@H](N)CC(=O)NC(c3ccccc3)(c3ccccc3)c3ccccc3)C(=O)N[C@@H](CC(N)=O)C(=O)N[C@H]5C(=O)N[C@H]3C(=O)N[C@H](C(=O)N[C@@H](C(=O)O)c5cc(O)cc(O)c5-c5cc3ccc5O)[C@H](O)c3ccc(c(Cl)c3)O4)O[C@H](CO)[C@@H](O)[C@@H]2O)C[C@@](C)(NCc2ccc(-c3ccc(Cl)cc3)cc2)[C@H]1O [Compound 2],2
9,COc1ccc(C(SC[C@H](N)C(=O)N[C@H]2C(=O)N[C@@H](CC(N)=O)C(=O)N[C@H]3C(=O)N[C@H]4C(=O)N[C@H](C(=O)N[C@@H](C(=O)O)c5cc(O)cc(O)c5-c5cc4ccc5O)[C@H](O)c4ccc(c(Cl)c4)Oc4cc3cc(c4O[C@@H]3O[C@H](CO)[C@@H](O)[C@H](O)[C@H]3O[C@@H]3C[C@@](C)(NCc4ccc(-c5ccc(Cl)cc5)cc4)[C@@H](O)[C@@H](C)O3)Oc3ccc(cc3Cl)[C@H]2O)(c2ccccc2)c2ccccc2)cc1 [Compound 6],2
10,CC(OC(c1ccccc1)(c1ccccc1)c1ccccc1)[C@H](N)C(=O)N[C@H]1C(=O)N[C@@H](CC(N)=O)C(=O)N[C@H]2C(=O)N[C@H]3C(=O)N[C@H](C(=O)N[C@@H](C(=O)O)c4cc(O)cc(O)c4-c4cc3ccc4O)[C@H](O)c3ccc(c(Cl)c3)Oc3cc2cc(c3O[C@@H]2O[C@H](CO)[C@@H](O)[C@H](O)[C@H]2O[C@@H]2C[C@@](C)(NCc3ccc(-c4ccc(Cl)cc4)cc3)[C@@H](O)[C@@H](C)O2)Oc2ccc(cc2Cl)[C@H]1O (some centres unmarked) [Compound 11],2
11,C[C@H]1O[C@H](O[C@H]2[C@H](Oc3c4cc5cc3Oc3ccc(cc3Cl)[C@@H](O)[C@@H](NC(=O)[C@H](N)CSC(c3ccccc3)(c3ccccc3)c3ccccc3)C(=O)N[C@@H](CC(N)=O)C(=O)N[C@H]5C(=O)N[C@H]3C(=O)N[C@H](C(=O)N[C@@H](C(=O)O)c5cc(O)cc(O)c5-c5cc3ccc5O)[C@H](O)c3ccc(c(Cl)c3)O4)O[C@H](CO)[C@@H](O)[C@@H]2O)C[C@@](C)(NCc2ccc(-c3ccc(Cl)cc3)cc2)[C@H]1O [Compound 14],2
12,Cc1ccc(C(NCCCCC(N)C(=O)NC2C(=O)NC(CC(N)=O)C(=O)NC3C(=O)NC4C(=O)NC(C(=O)NC(C(=O)O)c5cc(O)cc(O)c5-c5cc4ccc5O)C(O)c4ccc(c(Cl)c4)Oc4cc3cc(c4OC3OC(CO)C(O)C(O)C3OC3CC(C)(NCc4ccc(-c5ccc(Cl)cc5)cc4)C(O)C(C)O3)Oc3ccc(cc3Cl)C2O)(c2ccccc2)c2ccccc2)cc1 (centres unmarked) [Compound 40],2
13,CC(=O)NCSC(C)(C)C(N)C(=O)NC1C(=O)NC(CC(N)=O)C(=O)NC2C(=O)NC3C(=O)NC(C(=O)NC(C(=O)O)c4cc(O)cc(O)c4-c4cc3ccc4O)C(O)c3ccc(c(Cl)c3)Oc3cc2cc(c3OC2OC(CO)C(O)C(O)C2OC2CC(C)(NCc3ccc(-c4ccc(Cl)cc4)cc3)C(O)C(C)O2)Oc2ccc(cc2Cl)C1O (centres unmarked) [Compound 46],2
14,CC(N)C(=O)NC1C(=O)NC(CC(N)=O)C(=O)NC2C(=O)NC3C(=O)NC(C(=O)NC(C(=O)O)c4cc(O)cc(O)c4-c4cc3ccc4O)C(O)c3ccc(c(Cl)c3)Oc3cc2cc(c3OC2OC(CO)C(O)C(O)C2OC2CC(C)(NCc3ccc(-c4ccc(Cl)cc4)cc3)C(O)C(C)O2)Oc2ccc(cc2Cl)C1O (centres unmarked) [Compound 51],2
15,CC(=O)NCSCC(N)C(=O)NC1C(=O)NC(CC(N)=O)C(=O)NC2C(=O)NC3C(=O)NC(C(=O)NC(C(=O)O)c4cc(O)cc(O)c4-c4cc3ccc4O)C(O)c3ccc(c(Cl)c3)Oc3cc2cc(c3OC2OC(CO)C(O)C(O)C2OC2CC(C)(NCc3ccc(-c4ccc(Cl)cc4)cc3)C(O)C(C)O2)Oc2ccc(cc2Cl)C1O (centres unmarked) [Compound 55],2
16,CC1OC(OC2C(Oc3c4cc5cc3Oc3ccc(cc3Cl)C(O)C3NC(=O)C(NC(=O)C5NC(=O)C(CC(N)=O)NC(=O)C(NC(=O)C(N)Cc5c[nH]cn5)C(O)c5ccc(c(Cl)c5)O4)c4ccc(O)c(c4)-c4c(O)cc(O)cc4C(C(=O)O)NC3=O)OC(CO)C(O)C2O)CC(C)(NCc2ccc(-c3ccc(Cl)cc3)cc2)C1O (centres unmarked) [Compound 58],2
17,CC1OC(OC2C(Oc3c4cc5cc3Oc3ccc(cc3Cl)C(O)C(NC(=O)C3CCC(O)N3C(=O)C3CCCN3C(=O)CN)C(=O)NC(CC(N)=O)C(=O)NC5C(=O)NC3C(=O)NC(C(=O)NC(C(=O)O)c5cc(O)cc(O)c5-c5cc3ccc5O)C(O)c3ccc(c(Cl)c3)O4)OC(CO)C(O)C2O)CC(C)(NCc2ccc(-c3ccc(Cl)cc3)cc2)C1O (centres unmarked) [Compound 69],2
